Assay results published in EPA's ToxRefDB 2.

Columns and labels:
mouse [1] = settings: Carcinogenicity, other, Oral, Feed, dose end: 105 week, group: systemic
rat [2] = settings: Prenatal developmental toxicity study, Oral, Gavage/Intubation, dose end: 16 GD
rat [3] = settings: Subchronic oral toxicity in rodents, Feed, dose end: 3 month, group: systemic
dog [4] = settings: Subchronic oral toxicity in nonrodent, beagle, Feed, dose end: 13 week, group: systemic, systemic / pathology microscopic / kidney / pyelonephritis
dog [5] = settings: Chronic toxicity, beagle, Oral, Feed, dose end: 104 week, group: systemic
rat [6] = settings: Combined chronic toxicity/carcinogenicity, wistar, Oral, Feed, dose end: 24 month, group: systemic
rat [7] = settings: Multigenerational reproductive toxicity study, sprague dawley, Oral, Feed, dose end: 2 generation
rabbit = settings: Prenatal developmental toxicity study, new zealand white, Oral, Gavage/Intubation, dose end: 19 GD
mouse [8] = settings: Combined chronic toxicity/carcinogenicity, cd1, Oral, Feed, dose end: 2 year, group: systemic
rat [9] = settings: Prenatal developmental toxicity study, wistar, Oral, Gavage/Intubation, dose end: 15 GD
dog [10] = settings: Chronic toxicity; beagle; Oral; Capsule; dose end: 52 week; group: systemic; systemic / clinical chemistry / alkaline phosphatase (alp/alk) / alkaline phosphatase (alp/alk) + systemic / clinical chemistry / …
rat [11] = settings: Subchronic oral toxicity in rodents, wistar, [Not Specified], dose end: 90 day, group: systemic
rat [12] = settings: Combined chronic toxicity/carcinogenicity, sprague dawley, Oral, Feed, dose end: 2 year, group: systemic
rat [13] = settings: Multigenerational reproductive toxicity study, wistar, Oral, Feed, dose end: 2 generation
[14] = systemic / pathology microscopic / liver / focal cellular change + systemic / pathology microscopic / liver / hypertrophy + systemic / …
[15] = systemic / pathology microscopic / liver / hypertrophy
[16] = group: developmental, developmental / developmental malformation / bone / incomplete ossification + systemic / in life observation / body weight / fetal weight
[17] = group: maternal, reproductive / reproductive performance / postimplantation loss / postimplantation loss + systemic / in life observation / body weight / …
[18] = systemic / clinical chemistry / lipids, total / lipids, total + systemic / organ weight / ovary / relative to body weight + systemic / organ…
[19] = systemic / in life observation / body weight / body weight + systemic / in life observation / body weight / body weight gain
[20] = group: offspring, developmental / offspring survival late / [other] / [other]
[21] = group: parental, systemic / organ weight / kidney / relative to body weight + systemic / organ weight / spleen / absolute + systemic / organ weight / spleen…
[22] = group: parental, systemic / organ weight / liver / absolute + systemic / organ weight / liver / relative to body weight
[23] = group: developmental, developmental / developmental malformation / bone / short supernumerary + developmental / developmental malformation / bone / full …
[24] = group: maternal, systemic / in life observation / body weight / body weight + systemic / in life observation / body weight / body weight gain + systemic / in…
[25] = group: developmental, developmental / developmental malformation / mouth / jaw / cleft palate
[26] = group: maternal, systemic / in life observation / body weight / body weight gain
[27] = group: maternal, systemic / in life observation / body weight / body weight gain + systemic / in life observation / clinical signs / urogenital staining + …
[28] = systemic / clinical chemistry / aminopyrine-n-demethylase / aminopyrine-n-demethylase + systemic / organ weight / liver / absolute + …
[29] = systemic / urinalysis / volume / volume
[30] = group: offspring, systemic / in life observation / clinical signs / red or crusty deposits around eyes, ears, nose, or mouth + systemic / pathology gross / …
[31] = group: parental, systemic / in life observation / body weight / body weight gain + systemic / in life observation / food consumption / food consumption + …

In the case of `CCOC(=O)C(C)Oc1ccc(Oc2nc3ccc(Cl)cc3o2)cc1` (stereo unspecified) [Fenoxaprop-ethyl], the LOAEL (mouse [1]; [14]) was 16.6 mg/kg/day, the NOAEL (mouse [1]; [14]) was 5.7 mg/kg/day and the LEL (mouse [1]; [15]) was 5.7 mg/kg/day. It also gave an NEL (mouse [1]; [15]) of less than 5.7 mg/kg/day, an LEL (rat [2]; [16]) of 100 mg/kg/day and an LOAEL (rat [2]; [16]) of 100 mg/kg/day. For the same compound, the NEL (rat [2]; [16]) was 32 mg/kg/day, the NOAEL (rat [2]; [16]) was 32 mg/kg/day and the LEL (rat [2]; [17]) was 100 mg/kg/day. The LOAEL (rat [2]; [17]) was 100 mg/kg/day, the NEL (rat [2]; [17]) was 32 mg/kg/day and the NOAEL (rat [2]; [17]) was 32 mg/kg/day. It also gave an LEL (rat [3]; [18]) of 1 mg/kg/day, an NEL (rat [3]; [18]) of less than 1 mg/kg/day and an LOAEL (rat [3]; systemic / organ weight / adrenal gland / relative to body weight) of 4 mg/kg/day. The NOAEL (rat [3]; systemic / organ weight / adrenal gland / relative to body weight + systemic / clinical chemistry / cholesterol / cholesterol + systemic / …) was 1 mg/kg/day, the LEL (dog [4]) was 2 mg/kg/day and the LOAEL (dog [4]) was 2 mg/kg/day. For the same compound, the NEL (dog [4]) was 0.4 mg/kg/day, the NOAEL (dog [4]) was 0.4 mg/kg/day and the LEL (dog [5]; systemic / in life observation / body weight / body weight) was 0.375 mg/kg/day. For the same compound, the LOAEL (dog [5]; [19]) was 1.88 mg/kg/day, the NEL (dog [5]; [19]) was 0.075 mg/kg/day and the NOAEL (dog [5]; [19]) was 0.375 mg/kg/day. It also gave an LOAEL (rat [6]; systemic / clinical chemistry / cholesterol / cholesterol + systemic / clinical chemistry / lipids, total / lipids, total) of 9 mg/kg/day, an NOAEL (rat [6]; systemic / clinical chemistry / cholesterol / cholesterol + systemic / clinical chemistry / lipids, total / lipids, total + systemic / organ…) of 1.5 mg/kg/day and an NEL (rat [6]; systemic / clinical chemistry / cholesterol / cholesterol + systemic / hematology / leukocyte (wbc) count differential / leukocyte (wbc) + …) of 0.25 mg/kg/day. It also gave an LEL (rat [6]; systemic / clinical chemistry / cholesterol / cholesterol + systemic / pathology microscopic / liver / glycogen liberation + systemic / …) of 1.5 mg/kg/day, an LEL (rat [7]; [20]) of 0.25 mg/kg/day and an LOAEL (rat [7]; [20]) of 0.25 mg/kg/day. It also gave an NEL (rat [7]; [20]) of less than 0.25 mg/kg/day, an NOAEL (rat [7]; [20]) of less than 0.25 mg/kg/day and an LEL (rat [7]; [21]) of 1.94 mg/kg/day. It also gave an NEL (rat [7]; [21]) of 0.33 mg/kg/day, an LOAEL (rat [7]; [22]) of 9.05 mg/kg/day and an NOAEL (rat [7]; [22]) of 1.53 mg/kg/day.

With `CC(C)(C)[C@H](O)[C@H](Cc1ccc(Cl)cc1)n1cncn1` [Paclobutrazol] the LEL (rabbit; [23]) was 125 mg/kg/day, the LOAEL (rabbit; [23]) was 125 mg/kg/day and the NEL (rabbit; [23]) was 75 mg/kg/day. For the same compound, the NOAEL (rabbit; [23]) was 75 mg/kg/day, the LEL (rabbit; [24]) was 125 mg/kg/day and the LOAEL (rabbit; [24]) was 125 mg/kg/day. For the same compound, the NEL (rabbit; [24]) was 75 mg/kg/day, the NOAEL (rabbit; [24]) was 75 mg/kg/day and the LEL (mouse [8]; systemic / organ weight / kidney / relative to body weight) was 18.8 mg/kg/day. For the same compound, the NEL (mouse [8]; systemic / organ weight / kidney / relative to body weight + systemic / organ weight / kidney / absolute + systemic / organ weight / liver…) was 3.75 mg/kg/day, the LOAEL (mouse [8]; systemic / pathology microscopic / liver / steatosis) was 112 mg/kg/day and the NOAEL (mouse [8]; systemic / pathology microscopic / liver / steatosis + systemic / organ weight / liver / absolute + systemic / organ weight / liver / …) was 18.8 mg/kg/day. The LOAEL (rat [9]; group: developmental, developmental / developmental malformation / bone / incomplete ossification + developmental / developmental malformation / bone / unossified) was 100 mg/kg/day, the NOAEL (rat [9]; group: developmental, developmental / developmental malformation / bone / incomplete ossification + developmental / developmental malformation / bone / unossified…) was 40 mg/kg/day and the LEL (rat [9]; [25]) was 40 mg/kg/day. For the same compound, the NEL (rat [9]; [25]) was less than 40 mg/kg/day, the LEL (rat [9]; [26]) was 100 mg/kg/day and the LOAEL (rat [9]; [26]) was 100 mg/kg/day. For the same compound, the NEL (rat [9]; [27]) was 40 mg/kg/day, the NOAEL (rat [9]; [27]) was 40 mg/kg/day and the LEL (dog [10]) was 75 mg/kg/day. The LOAEL (dog [10]) was 75 mg/kg/day, the NEL (dog [10]) was 15 mg/kg/day and the NOAEL (dog [10]) was 15 mg/kg/day. For the same compound, the LOAEL (rat [11]; [28]) was 62.5 mg/kg/day, the NOAEL (rat [11]; [28]) was 12.5 mg/kg/day and the LEL (rat [11]; [29]) was 2.5 mg/kg/day. The NEL (rat [11]; [29]) was less than 2.5 mg/kg/day, the LEL (rat [12]; systemic / clinical chemistry / triglycerides / triglycerides) was 12.5 mg/kg/day and the LOAEL (rat [12]; [15]) was 62.5 mg/kg/day. It also gave an NOAEL (rat [12]; [15]) of 12.5 mg/kg/day, an NEL (rat [12]; systemic / pathology microscopic / liver / hypertrophy + systemic / clinical chemistry / triglycerides / triglycerides + systemic / …) of 2.5 mg/kg/day and an LEL (rat [13]; [30]) of 12.5 mg/kg/day. The LOAEL (rat [13]; [30]) was 12.5 mg/kg/day, the NEL (rat [13]; [30]) was 2.5 mg/kg/day and the NOAEL (rat [13]; [30]) was 2.5 mg/kg/day. For the same compound, the NEL (rat [13]; group: parental, systemic / in life observation / body weight / body weight + systemic / in life observation / body weight / body weight gain + systemic / in…) was 2.5 mg/kg/day, the LOAEL (rat [13]; [31]) was greater than 62.5 mg/kg/day and the NOAEL (rat [13]; [31]) was no less than 62.5 mg/kg/day. For the same compound, the LEL (rat [13]; group: parental, systemic / in life observation / clinical signs / red or crusty deposits around eyes, ears, nose, or mouth + systemic / pathology gross / …) was 12.5 mg/kg/day.
